Results published in ChEMBL document CHEMBL2331203, “Optimization of inhibitors of the tyrosine kinase EphB4. 2. Cellular potency improvement and binding mode validation by X-ray crystallography” (J Med Chem, 2013).

What was measured:
[1] = Cytotoxicity against human GXF251L cells after 4 days by propidium iodide staining; settings: GXF 251L, 96 h
[2] = target: T1, Tyrosine-protein kinase Yes (Homo sapiens, UniProt P07947); assay: Inhibition of human Yes1 using [gamma-33P]ATP assessed as residual activity at 3 uM after 30 mins by radiometric assay
Target sequence in this assay (P07947 2-543 limits assumed): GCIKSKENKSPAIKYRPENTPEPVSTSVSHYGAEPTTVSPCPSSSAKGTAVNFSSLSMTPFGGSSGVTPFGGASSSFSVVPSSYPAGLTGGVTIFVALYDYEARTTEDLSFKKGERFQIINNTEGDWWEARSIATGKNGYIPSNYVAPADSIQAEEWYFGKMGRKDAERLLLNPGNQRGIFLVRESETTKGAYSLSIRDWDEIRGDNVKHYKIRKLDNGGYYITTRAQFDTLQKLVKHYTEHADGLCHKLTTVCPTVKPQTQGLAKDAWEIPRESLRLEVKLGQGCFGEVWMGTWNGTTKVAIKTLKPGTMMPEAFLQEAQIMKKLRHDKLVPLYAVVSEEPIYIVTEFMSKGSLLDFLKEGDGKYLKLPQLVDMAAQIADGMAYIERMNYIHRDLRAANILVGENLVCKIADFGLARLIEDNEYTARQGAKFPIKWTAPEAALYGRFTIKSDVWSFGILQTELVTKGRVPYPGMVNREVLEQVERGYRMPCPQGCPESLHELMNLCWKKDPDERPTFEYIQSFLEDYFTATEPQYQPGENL

[3] = target: T1, Tyrosine-protein kinase Yes; assay: Inhibition of Yes1 (unknown origin) using [gamma-33P]ATP after 30 mins by radiometric assay
Target sequence in this assay (P07947 whole entry): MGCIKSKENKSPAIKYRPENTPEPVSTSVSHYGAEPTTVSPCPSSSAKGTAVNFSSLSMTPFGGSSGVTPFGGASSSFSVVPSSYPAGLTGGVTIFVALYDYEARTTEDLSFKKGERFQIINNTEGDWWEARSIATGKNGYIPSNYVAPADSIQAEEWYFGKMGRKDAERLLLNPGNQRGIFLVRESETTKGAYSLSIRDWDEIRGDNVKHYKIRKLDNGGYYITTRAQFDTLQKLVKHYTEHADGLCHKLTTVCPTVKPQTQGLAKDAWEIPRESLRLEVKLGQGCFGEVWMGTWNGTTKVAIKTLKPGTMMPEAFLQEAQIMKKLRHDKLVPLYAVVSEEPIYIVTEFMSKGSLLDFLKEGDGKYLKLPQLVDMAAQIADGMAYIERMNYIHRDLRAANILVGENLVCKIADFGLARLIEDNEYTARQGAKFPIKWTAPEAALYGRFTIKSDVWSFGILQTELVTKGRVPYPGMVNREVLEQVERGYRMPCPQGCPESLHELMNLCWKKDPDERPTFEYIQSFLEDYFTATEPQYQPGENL

[4] = target: Tyrosine-protein kinase Lck (Homo sapiens, UniProt P06239); assay: Inhibition of Lck (unknown origin) using [gamma-33P]ATP after 30 mins by radiometric assay
Ephrin type-B receptor 4 [5] = target: T2, Ephrin type-B receptor 4 (Homo sapiens, UniProt P54760); assay: Inhibition of EphB4 (unknown origin) transfected in CHO cells using Z'-LYTE TYR-1 peptide as substrate after 2 hrs by FRET assay; assay type: cell-based
T2 sequence (P54760 whole entry): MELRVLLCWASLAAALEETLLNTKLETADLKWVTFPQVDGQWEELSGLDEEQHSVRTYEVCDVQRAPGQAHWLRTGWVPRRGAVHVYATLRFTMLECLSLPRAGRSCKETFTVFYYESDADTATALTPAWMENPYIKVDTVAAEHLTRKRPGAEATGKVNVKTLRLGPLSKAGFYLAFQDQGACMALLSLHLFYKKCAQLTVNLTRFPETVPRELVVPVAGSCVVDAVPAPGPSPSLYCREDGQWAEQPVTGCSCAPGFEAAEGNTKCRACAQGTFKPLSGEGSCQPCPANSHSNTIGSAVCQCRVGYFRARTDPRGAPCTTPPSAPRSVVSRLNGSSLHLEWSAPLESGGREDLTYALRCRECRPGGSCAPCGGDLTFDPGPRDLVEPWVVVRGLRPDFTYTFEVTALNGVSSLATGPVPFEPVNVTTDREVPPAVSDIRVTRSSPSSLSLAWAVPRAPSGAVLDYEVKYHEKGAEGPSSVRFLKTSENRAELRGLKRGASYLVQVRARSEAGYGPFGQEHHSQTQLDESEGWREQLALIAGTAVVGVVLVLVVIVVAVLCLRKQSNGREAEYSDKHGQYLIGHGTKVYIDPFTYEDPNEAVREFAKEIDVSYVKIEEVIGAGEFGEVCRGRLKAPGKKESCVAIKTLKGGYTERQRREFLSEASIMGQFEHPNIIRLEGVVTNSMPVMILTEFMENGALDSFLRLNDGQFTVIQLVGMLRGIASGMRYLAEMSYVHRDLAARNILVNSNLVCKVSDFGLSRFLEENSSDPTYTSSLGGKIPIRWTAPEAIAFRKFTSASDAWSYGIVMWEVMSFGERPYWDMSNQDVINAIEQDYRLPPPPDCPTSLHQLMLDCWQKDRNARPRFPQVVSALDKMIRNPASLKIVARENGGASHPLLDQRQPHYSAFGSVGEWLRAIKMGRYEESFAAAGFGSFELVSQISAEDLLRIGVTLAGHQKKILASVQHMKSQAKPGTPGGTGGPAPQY

Ephrin type-B receptor 4 [6] = target: T2, Ephrin type-B receptor 4
Description: Inhibition of human myc-tagged full length EphB4 expressed in MEF cells assessed as inhibition of ephrinB2-Fc-induced autophosphorylation incubated for 90 mins prior to ephrinB2-Fc-induction measured after 2 hrs by sandwich ELISA

Sequence of Tyrosine-protein kinase Lck (P06239 whole entry): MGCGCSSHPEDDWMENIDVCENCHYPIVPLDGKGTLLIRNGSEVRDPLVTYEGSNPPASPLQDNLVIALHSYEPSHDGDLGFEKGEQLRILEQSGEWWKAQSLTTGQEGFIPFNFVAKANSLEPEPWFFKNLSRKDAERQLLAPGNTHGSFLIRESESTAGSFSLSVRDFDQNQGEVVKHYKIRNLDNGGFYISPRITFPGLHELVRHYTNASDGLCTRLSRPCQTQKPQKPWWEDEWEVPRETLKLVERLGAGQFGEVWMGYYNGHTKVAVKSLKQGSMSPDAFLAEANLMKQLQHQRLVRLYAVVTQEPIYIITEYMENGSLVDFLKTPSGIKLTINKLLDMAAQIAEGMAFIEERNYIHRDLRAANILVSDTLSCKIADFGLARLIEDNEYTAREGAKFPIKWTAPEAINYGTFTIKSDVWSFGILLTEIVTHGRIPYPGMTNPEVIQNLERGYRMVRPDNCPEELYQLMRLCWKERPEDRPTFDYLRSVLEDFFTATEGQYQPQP

Activity [2]: 14%
IC50 [3]: 284 nM
IC50 [4]: 493 nM
IC50 (Ephrin type-B receptor 4 [5]): 56 nM
IC50 (Ephrin type-B receptor 4 [6]): 50 nM
Structure (SMILES): CCCCn1c(-c2ccccc2C)cn2c3c(=O)[nH]c(=O)n(C)c3nc12
IC50 [1]: 14.6 µM
